According to PubChem BioAssay (NCI):
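GI50: concentration for 50% inhibition of growth. TGI: total growth inhibition.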

What was measured:
Assay in all cases: NCI-60 cell line screen, 384-well format
[1] = tested on: 786-0 renal
[2] = tested on: A498 renal
[3] = tested on: A549 NSCLC
[4] = tested on: ACHN renal
[5] = tested on: BT-549 breast
[6] = tested on: CAKI-1 renal
[7] = tested on: COLO 205 colon
[8] = tested on: DU-145 prostate
[9] = tested on: EKVX NSCLC
[10] = tested on: HCC-2998 colon
[11] = tested on: HCT-116 colon
[12] = tested on: HCT-15 colon
[13] = tested on: HL-60(TB) leukemia
[14] = tested on: HOP-62 NSCLC
[15] = tested on: HOP-92 NSCLC
[16] = tested on: HS 578T breast
[17] = tested on: HT29 colon
[18] = tested on: IGROV1 ovarian
[19] = tested on: KM12 colon
[20] = tested on: LOX IMVI melanoma
[21] = tested on: M14 melanoma
[22] = tested on: MALME-3M melanoma
[23] = tested on: MCF7 breast
[24] = tested on: MDA-MB-231 breast
[25] = tested on: MDA-MB-435 melanoma
[26] = tested on: MDA-MB-468 breast
[27] = tested on: MOLT-4 leukemia
[28] = tested on: NCI-H226 lung
[29] = tested on: NCI-H23 lung
[30] = tested on: NCI-H322M lung
[31] = tested on: NCI-H460 NSCLC
[32] = tested on: NCI-H522 lung
[33] = tested on: NCI/ADR-RES ovarian
[34] = tested on: OVCAR-3 ovarian
[35] = tested on: OVCAR-5 ovarian
[36] = tested on: OVCAR-8 ovarian
[37] = tested on: PC-3 prostate
[38] = tested on: RPMI-8226 leukemia
[39] = tested on: RXF 393 renal
[40] = tested on: SF-268 CNS
[41] = tested on: SF-539 CNS
[42] = tested on: SK-MEL-28 melanoma
[43] = tested on: SK-MEL-5 melanoma
[44] = tested on: SK-OV-3 ovarian
[45] = tested on: SN12C renal
[46] = tested on: SNB-19 CNS
[47] = tested on: SNB-75 CNS
[48] = tested on: SW-620 colon
[49] = tested on: T-47D breast
[50] = tested on: TK-10 renal
[51] = tested on: U251 glioblastoma
[52] = tested on: UACC-257 melanoma
[53] = tested on: UACC-62 melanoma
[54] = tested on: UO-31 renal

For C[C@]12CC[C@H](O)CC1=CC[C@@H]1[C@@H]2CC[C@]2(C)C(c3cccnc3)=CC[C@@H]12, the GI50 [1] was 1.93 µM, the TGI [1] was 3.88 µM and the GI50 [2] was 15.8 µM. The TGI [2] was 45.1 µM, the GI50 [3] was 63.9 µM and the TGI [3] was > 100 µM. The GI50 [4] was 22.9 µM, the TGI [4] was > 100 µM and the GI50 [5] was 9.12 µM. The TGI [5] was 69.7 µM, the GI50 [6] was 52.8 µM and the TGI [6] was > 100 µM. For the same compound, the GI50 [7] was 42.1 µM, the TGI [7] was > 100 µM and the GI50 [8] was > 100 µM. The TGI [8] was > 100 µM, the GI50 [9] was 25.9 µM and the TGI [9] was > 100 µM. For the same compound, the GI50 [10] was > 100 µM, the TGI [10] was > 100 µM and the GI50 [11] was 57 µM. The TGI [11] was > 100 µM, the GI50 [12] was 9.74 µM and the TGI [12] was > 100 µM. The GI50 [13] was 4.06 µM, the TGI [13] was 10.1 µM and the GI50 [14] was 20 µM. The TGI [14] was > 100 µM, the GI50 [15] was 25.2 µM and the TGI [15] was > 100 µM. The GI50 [16] was 9.52 µM, the TGI [16] was 49 µM and the GI50 [17] was 15.2 µM. The TGI [17] was 96.1 µM, the GI50 [18] was 60.4 µM and the TGI [18] was > 100 µM. The GI50 [19] was 38.3 µM, the TGI [19] was > 100 µM and the GI50 [20] was 4.93 µM. For the same compound, the TGI [20] was > 100 µM, the GI50 [21] was > 100 µM and the TGI [21] was > 100 µM. The GI50 [22] was 3.99 µM, the TGI [22] was 61.5 µM and the GI50 [23] was > 100 µM. The TGI [23] was > 100 µM, the GI50 [24] was > 100 µM and the TGI [24] was > 100 µM. For the same compound, the GI50 [25] was > 100 µM, the TGI [25] was > 100 µM and the GI50 [26] was 5.46 µM. For the same compound, the TGI [26] was > 100 µM, the GI50 [27] was 2.99 µM and the TGI [27] was 25 µM. The GI50 [28] was 4.86 µM, the TGI [28] was > 100 µM and the GI50 [29] was > 100 µM. For the same compound, the TGI [29] was > 100 µM, the GI50 [30] was > 100 µM and the TGI [30] was > 100 µM. For the same compound, the GI50 [31] was > 100 µM, the TGI [31] was > 100 µM and the GI50 [32] was > 100 µM. For the same compound, the TGI [32] was > 100 µM, the GI50 [33] was > 100 µM and the TGI [33] was > 100 µM. The GI50 [34] was > 100 µM, the TGI [34] was > 100 µM and the GI50 [35] was > 100 µM. For the same compound, the TGI [35] was > 100 µM, the GI50 [36] was > 100 µM and the TGI [36] was > 100 µM. The GI50 [37] was > 100 µM, the TGI [37] was > 100 µM and the GI50 [38] was 2.36 µM. For the same compound, the TGI [38] was 4.65 µM, the GI50 [39] was 1.83 µM and the TGI [39] was 4.72 µM. The GI50 [40] was > 100 µM, the TGI [40] was > 100 µM and the GI50 [41] was > 100 µM. The TGI [41] was > 100 µM, the GI50 [42] was > 100 µM and the TGI [42] was > 100 µM. The GI50 [43] was > 100 µM, the TGI [43] was > 100 µM and the GI50 [44] was > 100 µM. For the same compound, the TGI [44] was > 100 µM, the GI50 [45] was > 100 µM and the TGI [45] was > 100 µM. For the same compound, the GI50 [46] was > 100 µM, the TGI [46] was > 100 µM and the GI50 [47] was > 100 µM. For the same compound, the TGI [47] was > 100 µM, the GI50 [48] was > 100 µM and the TGI [48] was > 100 µM. For the same compound, the GI50 [49] was > 100 µM, the TGI [49] was > 100 µM and the GI50 [50] was > 100 µM. The TGI [50] was > 100 µM, the GI50 [51] was > 100 µM and the TGI [51] was > 100 µM. The GI50 [52] was > 100 µM, the TGI [52] was > 100 µM and the GI50 [53] was > 100 µM. For the same compound, the TGI [53] was > 100 µM, the GI50 [54] was > 100 µM and the TGI [54] was > 100 µM.
